{
  "source": "PubChem BioAssay AID1259409",
  "about": "(Chemical Carcinogenesis Research Information System (CCRIS), 2018)",
  "origin": "cited, not measured here",
  "test_system": "rodent chemically induced tumor inhibition, incidence and multiplicity",
  "experiment": "CCRIS tumor inhibitor studies",
  "conditions": "Promoter: NONE USED",
  "data": [
    {"smiles": "CCO", "values": [
      {"measurement": "tumour outcome (control, treated, inhibition, significance)", "setting": "Carcinogen: AZOXYMETHANE, 25843-45-2, Dose [Inhibitor]: 33% OF TOTAL CALORIES OF DIET GIVEN CONTINUOUSLY FOR 3 WK PRIOR TO CARCINOGEN DOSE AND 10 WK DURING INDUCTION (STUDY DUR, Route [Inhibitor]: ORAL, Species: RAT, Strain/Sex: F344/MALE, Target Tissue: Type of Lesion: COLON: TUMOR, Dose [Carcinogen]: 14 MG/KG 1/WK FOR 10 WK", "value": "91%, 5%, 94%, not calculated"},
      {"measurement": "tumour outcome (control, treated, inhibition, significance)", "setting": "Carcinogen: AZOXYMETHANE, 25843-45-2, Dose [Inhibitor]: 33% OF TOTAL CALORIES OF DIET GIVEN CONTINUOUSLY FOR 3 WK PRIOR TO CARCINOGEN DOSE AND 10 WK DURING INDUCTION (STUDY DUR, Route [Inhibitor]: ORAL, Species: RAT, Strain/Sex: F344/MALE, Target Tissue: Type of Lesion: EAR CANAL: TUMOR, Dose [Carcinogen]: 14 MG/KG 1/WK FOR 10 WK", "value": "9%, 0%, 100%, not calculated"},
      {"measurement": "tumour outcome (control, treated, inhibition, significance)", "setting": "Carcinogen: AZOXYMETHANE, 25843-45-2, Dose [Inhibitor]: 33% OF TOTAL CALORIES OF DIET GIVEN CONTINUOUSLY FOR 3 WK PRIOR TO CARCINOGEN DOSE AND 10 WK DURING INDUCTION (STUDY DUR, Route [Inhibitor]: ORAL, Species: RAT, Strain/Sex: F344/MALE, Target Tissue: Type of Lesion: SMALL INTESTINE: TUMOR, Dose [Carcinogen]: 14 MG/KG 1/WK FOR 10 WK", "value": "74%, 0%, 100%, p<0.0001"},
      {"measurement": "tumour outcome (control, treated, inhibition, significance)", "setting": "Carcinogen: ETHYL CARBAMATE, 51-79-6, Dose [Inhibitor]: 0, 12% ADMINISTERED WITH CARCINOGEN IN DRINKING WATER FOR 41 WK (STUDY DURATION: 41 WK), Route [Inhibitor]: ORAL, Species: MOUSE, Strain/Sex: C3H/MALE, Target Tissue: Type of Lesion: LIVER: HEMANGIOENDOTHELIOMA, Dose [Carcinogen]: 20 MG/KG IN DRINKING WATER FOR 41 WK", "value": "14%, 14%, 0%, not calculated"},
      {"measurement": "tumour outcome (control, treated, inhibition, significance)", "setting": "Carcinogen: ETHYL CARBAMATE, 51-79-6, Dose [Inhibitor]: 0, 12% ADMINISTERED WITH CARCINOGEN IN DRINKING WATER FOR 41 WK (STUDY DURATION: 41 WK), Route [Inhibitor]: ORAL, Species: MOUSE, Strain/Sex: C3H/MALE, Target Tissue: Type of Lesion: LIVER: HEMANGIOSARCOMA, Dose [Carcinogen]: 10 MG/KG IN DRINKING WATER FOR 41 WK", "value": "5%, 0%, 100%, not significant"},
      {"measurement": "tumour outcome (control, treated, inhibition, significance)", "setting": "Carcinogen: ETHYL CARBAMATE, 51-79-6, Dose [Inhibitor]: 0, 12% ADMINISTERED WITH CARCINOGEN IN DRINKING WATER FOR 41 WK (STUDY DURATION: 41 WK), Route [Inhibitor]: ORAL, Species: MOUSE, Strain/Sex: C3H/MALE, Target Tissue: Type of Lesion: LIVER: HEMANGIOSARCOMA, Dose [Carcinogen]: 20 MG/KG IN DRINKING WATER FOR 41 WK", "value": "24%, 0%, 100%, not significant"},
      {"measurement": "tumour outcome (control, treated, inhibition, significance)", "setting": "Carcinogen: ETHYL CARBAMATE, 51-79-6, Dose [Inhibitor]: 0, 12% ADMINISTERED WITH CARCINOGEN IN DRINKING WATER FOR 41 WK (STUDY DURATION: 41 WK), Route [Inhibitor]: ORAL, Species: MOUSE, Strain/Sex: C3H/MALE, Target Tissue: Type of Lesion: LIVER: HEPATOCELLULAR ADENOMA, Dose [Carcinogen]: 10 MG/KG IN DRINKING WATER FOR 41 WK", "value": "57%, 24%, 58%, not significant"},
      {"measurement": "tumour outcome (control, treated, inhibition, significance)", "setting": "Carcinogen: ETHYL CARBAMATE, 51-79-6, Dose [Inhibitor]: 0, 12% ADMINISTERED WITH CARCINOGEN IN DRINKING WATER FOR 41 WK (STUDY DURATION: 41 WK), Route [Inhibitor]: ORAL, Species: MOUSE, Strain/Sex: C3H/MALE, Target Tissue: Type of Lesion: LIVER: HEPATOCELLULAR ADENOMA, Dose [Carcinogen]: 20 MG/KG IN DRINKING WATER FOR 41 WK", "value": "48%, 57%, -19%, not significant"},
      {"measurement": "tumour outcome (control, treated, inhibition, significance)", "setting": "Carcinogen: ETHYL CARBAMATE, 51-79-6, Dose [Inhibitor]: 0, 12% ADMINISTERED WITH CARCINOGEN IN DRINKING WATER FOR 41 WK (STUDY DURATION: 41 WK), Route [Inhibitor]: ORAL, Species: MOUSE, Strain/Sex: C3H/MALE, Target Tissue: Type of Lesion: LIVER: HEPATOCELLULAR CARCINOMA, Dose [Carcinogen]: 10 MG/KG IN DRINKING WATER FOR 41 WK", "value": "5%, 0%, 100%, not significant"},
      {"measurement": "tumour outcome (control, treated, inhibition, significance)", "setting": "Carcinogen: ETHYL CARBAMATE, 51-79-6, Dose [Inhibitor]: 0, 12% ADMINISTERED WITH CARCINOGEN IN DRINKING WATER FOR 41 WK (STUDY DURATION: 41 WK), Route [Inhibitor]: ORAL, Species: MOUSE, Strain/Sex: C3H/MALE, Target Tissue: Type of Lesion: LIVER: HEPATOCELLULAR CARCINOMA, Dose [Carcinogen]: 20 MG/KG IN DRINKING WATER FOR 41 WK", "value": "14%, 5%, 64%, not significant"},
      {"measurement": "tumour outcome (control, treated, inhibition, significance)", "setting": "Carcinogen: ETHYL CARBAMATE, 51-79-6, Dose [Inhibitor]: 0, 12% ADMINISTERED WITH CARCINOGEN IN DRINKING WATER FOR 41 WK (STUDY DURATION: 41 WK), Route [Inhibitor]: ORAL, Species: MOUSE, Strain/Sex: C3H/MALE, Target Tissue: Type of Lesion: LUNG: ALVEOLAR ADENOMA, Dose [Carcinogen]: 10 MG/KG IN DRINKING WATER FOR 41 WK", "value": "19%, 0%, 100%, not significant"},
      {"measurement": "tumour outcome (control, treated, inhibition, significance)", "setting": "Carcinogen: ETHYL CARBAMATE, 51-79-6, Dose [Inhibitor]: 0, 12% ADMINISTERED WITH CARCINOGEN IN DRINKING WATER FOR 41 WK (STUDY DURATION: 41 WK), Route [Inhibitor]: ORAL, Species: MOUSE, Strain/Sex: C3H/MALE, Target Tissue: Type of Lesion: LUNG: ALVEOLAR ADENOMA, Dose [Carcinogen]: 20 MG/KG IN DRINKING WATER FOR 41 WK", "value": "48%, 38%, 21%, not significant"},
      {"measurement": "tumour outcome (control, treated, inhibition, significance)", "setting": "Carcinogen: ETHYL CARBAMATE, 51-79-6, Dose [Inhibitor]: 0, 12% ADMINISTERED WITH CARCINOGEN IN DRINKING WATER FOR 41 WK (STUDY DURATION: 41 WK), Route [Inhibitor]: ORAL, Species: MOUSE, Strain/Sex: C3H/MALE, Target Tissue: Type of Lesion: LUNG: CLARA-CELL ADENOMA, Dose [Carcinogen]: 10 MG/KG IN DRINKING WATER FOR 41 WK", "value": "52%, 24%, 54%, not significant"},
      {"measurement": "tumour outcome (control, treated, inhibition, significance)", "setting": "Carcinogen: ETHYL CARBAMATE, 51-79-6, Dose [Inhibitor]: 0, 12% ADMINISTERED WITH CARCINOGEN IN DRINKING WATER FOR 41 WK (STUDY DURATION: 41 WK), Route [Inhibitor]: ORAL, Species: MOUSE, Strain/Sex: C3H/MALE, Target Tissue: Type of Lesion: LUNG: CLARA-CELL ADENOMA, Dose [Carcinogen]: 20 MG/KG IN DRINKING WATER FOR 41 WK", "value": "57%, 38%, 33%, not significant"},
      {"measurement": "tumour outcome (control, treated, inhibition, significance)", "setting": "Carcinogen: ETHYL CARBAMATE, 51-79-6, Dose [Inhibitor]: 0, 20% SIMULTANEOUSLY WITH CARCINOGEN 1/D FOR 8 WK (STUDY DURATION: 16 WK), Route [Inhibitor]: GAVAGE, Species: MOUSE, Strain/Sex: NMRI/FEMALE, Target Tissue: Type of Lesion: LUNG: ADENOMA, Dose [Carcinogen]: 18 MG/KG IN 20% ETHANOL 1/D FOR 8 WK (CONTROL GROUP ADMINISTERED CARCINOGEN IN WATER)", "value": "65%, 76%, -17%, not significant"},
      {"measurement": "tumour outcome (control, treated, inhibition, significance)", "setting": "Carcinogen: ETHYL CARBAMATE, 51-79-6, Dose [Inhibitor]: 0, 20% SIMULTANEOUSLY WITH CARCINOGEN 1/D FOR 8 WK (STUDY DURATION: 16 WK), Route [Inhibitor]: GAVAGE, Species: MOUSE, Strain/Sex: NMRI/FEMALE, Target Tissue: Type of Lesion: LUNG: ADENOMA, Dose [Carcinogen]: 36 MG/KG IN 20% ETHANOL 1/D FOR 8 WK (CONTROL GROUP ADMINISTERED CARCINOGEN IN WATER)", "value": "96%, 83%, 14%, not significant"},
      {"measurement": "tumour outcome (control, treated, inhibition, significance)", "setting": "Carcinogen: ETHYL CARBAMATE, 51-79-6, Dose [Inhibitor]: 0, 20% SIMULTANEOUSLY WITH CARCINOGEN 1/D FOR 8 WK (STUDY DURATION: 16 WK), Route [Inhibitor]: GAVAGE, Species: MOUSE, Strain/Sex: NMRI/FEMALE, Target Tissue: Type of Lesion: LUNG: ADENOMA, Dose [Carcinogen]: 90 MG/KG IN 20% ETHANOL 1/D FOR 8 WK (CONTROL GROUP ADMINISTERED CARCINOGEN IN WATER)", "value": "100%, 100%, 0%, not significant"}
    ]}
  ]
}
